Patent US20070298025A1, “Pharmaceutical Compositions and Methods for Reducing Body Fat” (Obe Therapy Biotechnology S.A.S., priority 2004, published 2007)
Counter-ions that a name gives are not always drawn. Non-standard residues stand in square brackets, D forms with d. Residues, ends and D or L forms follow the SMILES beside them. *: point of attachment. Boc = CC(C)(C)OC(=O)*; CH2Cl = ClC*

Assays:
[1] = biological target: T1, enteropeptidase (Homo sapiens, UniProt P98073); assay: Trypsinogen activation assay; format: biochemical; parameters: purchased R&D Systems 1585-SE
T1 sequence (P98073 whole entry): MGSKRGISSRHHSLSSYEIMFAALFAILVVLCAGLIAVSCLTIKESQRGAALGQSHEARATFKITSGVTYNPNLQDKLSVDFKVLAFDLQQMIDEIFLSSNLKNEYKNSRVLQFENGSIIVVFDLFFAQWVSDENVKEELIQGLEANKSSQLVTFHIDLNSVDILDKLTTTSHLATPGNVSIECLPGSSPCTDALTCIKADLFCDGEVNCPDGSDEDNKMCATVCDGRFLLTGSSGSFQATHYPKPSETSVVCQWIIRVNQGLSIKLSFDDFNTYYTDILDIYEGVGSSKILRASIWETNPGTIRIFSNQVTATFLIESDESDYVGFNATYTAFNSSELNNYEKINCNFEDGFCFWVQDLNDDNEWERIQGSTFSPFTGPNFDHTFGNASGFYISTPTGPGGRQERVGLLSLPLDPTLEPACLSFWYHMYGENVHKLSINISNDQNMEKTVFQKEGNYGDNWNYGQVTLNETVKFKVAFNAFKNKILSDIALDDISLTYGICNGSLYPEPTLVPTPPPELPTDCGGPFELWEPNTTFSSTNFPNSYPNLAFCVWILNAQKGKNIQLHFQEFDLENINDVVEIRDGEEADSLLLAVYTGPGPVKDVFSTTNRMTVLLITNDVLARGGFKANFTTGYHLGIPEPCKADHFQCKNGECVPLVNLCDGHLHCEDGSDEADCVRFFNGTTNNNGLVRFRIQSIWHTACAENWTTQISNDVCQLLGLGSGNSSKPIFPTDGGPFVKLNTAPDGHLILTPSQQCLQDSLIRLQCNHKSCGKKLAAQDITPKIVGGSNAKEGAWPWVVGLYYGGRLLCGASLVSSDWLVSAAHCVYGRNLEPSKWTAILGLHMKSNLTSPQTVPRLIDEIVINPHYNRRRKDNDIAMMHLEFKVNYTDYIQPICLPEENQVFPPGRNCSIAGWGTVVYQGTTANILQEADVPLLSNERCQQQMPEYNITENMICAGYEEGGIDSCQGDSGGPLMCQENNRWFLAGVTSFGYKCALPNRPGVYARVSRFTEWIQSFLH
Source text: In vitro Testing: the Trypsinogen Activation Assay
Material: The following component, used in the present trypsinogen activation assay may be purchased as follows:
In the first step, the enteropeptidase cleaves the trypsinogen in its active form, trypsin. Trypsin, in the second step, cleaves the N-CBZ-Gly-Pro-Arg-p-nitroanilide (pNA) into N-CBZ-Gly-Pro-Arg and p-nitroanilide (pNA). The amount of pNA can be measured at 405 nm, and reflects the amount of trypsin cleaved and thus the inhibitory activity of the molecules tested on the enteropeptidase.
In the first step, the following mix was prepared (50 μl final) • recombinant human enteropeptidase: 1.5 nM final • sodium citrate: […] • candidate molecule or control: 1 μl • trypsinogen: 2.5 μM final
The mix was incubated at room temperature during 10 minutes and the reaction was stopped with 5 μl of HCl 0.4 M.
In the second step, the previous mix was then incubated with a 50 μl mix comprising 1 mM of N-CBZ-Gly-Pro-Arg-pNA, Tris Hcl pH 8.4 20 mM final and NaCl-150 mM final, at room temperature for 10 minutes. The absorbance of the resulting mix was read at 405 nm.
Results are expressed as the percentage of inhibition, which is the absorbance at 405 nm of the reaction in the presence of different concentrations of inhibitor as compared to the value obtained in the absence of inhibitor.

[2] = biological target: pepsin (Homo sapiens, UniProt P0DJD8); conditions: read-out: Ki (affinity for pepsin); cited from earlier work
Sequence of pepsin (P0DJD8 63-388): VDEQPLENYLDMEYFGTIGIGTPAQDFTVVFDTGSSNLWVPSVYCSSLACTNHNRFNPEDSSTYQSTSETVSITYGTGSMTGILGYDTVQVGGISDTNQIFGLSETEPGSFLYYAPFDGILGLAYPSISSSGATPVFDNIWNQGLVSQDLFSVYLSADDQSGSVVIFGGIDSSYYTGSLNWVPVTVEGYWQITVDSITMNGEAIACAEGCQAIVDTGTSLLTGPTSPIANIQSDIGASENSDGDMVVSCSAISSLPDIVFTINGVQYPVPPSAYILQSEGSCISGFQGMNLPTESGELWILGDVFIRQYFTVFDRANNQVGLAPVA

[3] = biological target: T1, enteropeptidase; assay: Test for enteropeptidase only (data not shown); format: biochemical
[4] = tested on: people having Type II diabetes; assay: Treating Type II diabetes: blood glucose study; format: in vivo, human; conditions: versus control group (placebo)
Description: Type II diabetes is a disease in which the amount of insulin produced by the pancreas is inadequate to meet the body's needs and thus glucose, which is metabolized by insulin is not taken up normally from the blood into the body tissues. Therefore glucose in the blood rises. Type II diabetes is detected by a fasting glucose level of greater than 126 mg/dL measured on two occasions or one blood glucose level of greater than 200 mg/dL on one occasion or two random blood glucose levels of more than 200 mg/dL. Also a glucose tolerance test having a glucose level of more than 200 mg/dL 2 hours after drinking 75 grams of glucose also qualifies an individual as having Type II diabetes.
Two groups of 10 people are used in this study. The first given a treatment of ritonavir at 600 mg taken twice a day, while the other 10 people were given a placebo. The treatment continued for 2 months.
(§1) The study group is advised to follow their normal routine concerning their eating habits and exercise patterns, which is recorded 1 month prior to this study and throughout this study.
At the end of two months blood glucose levels and a glucose tolerance test are tested with all of the people in the study.
(§2) The same study in Example 6 is conducted with a larger group of people having Type II diabetes. Each of the treated groups 1 to 7 is given as amprenavir, atazanavir, indinavir, lopinavir, fosamprenavir, nelfinavir or saquinavir in the same amounts as set forth in Example 3. The control group is given a placebo. At the end of two months another fasting (9-12 hours) lipid profile is taken.

[5] = tested on: persons having hyperlipidemia; assay: Treating hyperlipidemia: fasting lipid profile study; format: in vivo, human; conditions: fasting (9-12 hours), versus control group
Description: Hyperlipidemia is an elevation of lipids in the bloodstream. These lipids include, for example, cholesterol and triglycerides. General hyperlipidemia is determined by the results of a lipid profile. The lipid profile includes LDL, HDL, triglycerides and total cholesterol measurements. A group of persons having hyperlipidemia with a total cholesterol level greater than 240 mg/dl, an HDL (high density lipid) of below 40 mg/ml, a triglyceride level of greater than 200 mg/dl and an LDL (low density lipid) level of over 160 mg/ml, after a 9 to 12 hours of fasting, are chosen for this study.
10 people are given a treatment of ritonavir at 600 mg taken twice a day. The other 10 people are given a placebo. The treatment continued for 2 months.
as §1
At the end of two months another fasting (9-12 hours) lipid profile is taken.
as §2, with “8” for “6”, “hyperlipidemia.” for “Type II diabetes.”

[6] = biological target: Recombinant human enteropeptidase (human, UniProt P98073 41-1019, limits assumed); assay: cell-based or functional assay
Sequence of Recombinant human enteropeptidase (P98073 41-1019 E134Q/P732S limits assumed): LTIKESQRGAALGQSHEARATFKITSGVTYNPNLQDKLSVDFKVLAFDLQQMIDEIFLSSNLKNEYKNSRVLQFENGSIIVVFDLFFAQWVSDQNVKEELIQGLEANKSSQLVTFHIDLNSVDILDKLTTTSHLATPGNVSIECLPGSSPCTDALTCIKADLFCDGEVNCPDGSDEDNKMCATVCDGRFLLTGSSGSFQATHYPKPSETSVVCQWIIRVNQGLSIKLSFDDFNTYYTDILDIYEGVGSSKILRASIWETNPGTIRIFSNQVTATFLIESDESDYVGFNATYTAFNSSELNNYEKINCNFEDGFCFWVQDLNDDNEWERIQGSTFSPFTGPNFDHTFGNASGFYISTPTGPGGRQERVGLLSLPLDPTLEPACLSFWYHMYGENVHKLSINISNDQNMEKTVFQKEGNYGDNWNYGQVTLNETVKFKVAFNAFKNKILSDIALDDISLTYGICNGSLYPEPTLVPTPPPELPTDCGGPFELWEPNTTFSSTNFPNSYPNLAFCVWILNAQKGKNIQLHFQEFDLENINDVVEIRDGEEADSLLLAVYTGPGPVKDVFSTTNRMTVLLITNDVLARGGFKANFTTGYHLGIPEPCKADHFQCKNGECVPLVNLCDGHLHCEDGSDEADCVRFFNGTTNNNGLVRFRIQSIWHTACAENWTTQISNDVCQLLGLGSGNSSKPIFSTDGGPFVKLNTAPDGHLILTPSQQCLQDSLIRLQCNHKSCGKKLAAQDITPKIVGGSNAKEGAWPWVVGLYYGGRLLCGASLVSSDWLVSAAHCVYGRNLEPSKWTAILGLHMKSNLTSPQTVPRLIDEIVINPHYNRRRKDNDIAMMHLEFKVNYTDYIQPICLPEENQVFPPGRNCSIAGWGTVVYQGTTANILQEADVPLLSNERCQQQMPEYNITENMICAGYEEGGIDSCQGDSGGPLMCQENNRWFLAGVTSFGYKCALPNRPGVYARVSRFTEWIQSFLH

[7] = Example 7, groups 1 to 7, two months
[8] = Example 9, groups 1 to 7, two months

Molecule | levels of blood glucose [4, 7] | levels of HDL [5, 8] | levels of LDL [5, 8] | levels of cholesterol [5, 8] | levels of triglycerides [5, 8] | further results
CC(=O)N[C@@H](CC(C)C)C(=O)N[C@H](C(=O)N[C@H](C=O)CCCCN)C(C)C [AC-Leu-Val-Lys-Aldhehyde] (Ac-Leu-Val-Lys-aldehyde) |  |  |  |  |  | IC50 ([1]; trypsinogen activation assay, FIG. 6, enteropeptidase 1.5 nM, trypsinogen 2.5 μM): ~3000 nM
CC(C)[C@H](NC(=O)[C@H](Cc1ccccc1)C[C@H](O)[C@H](Cc1ccccc1)NC(=O)OC(C)(C)C)C(=O)N[C@@H](Cc1ccccc1)C(=O)N1CCOCC1 [CGP 53437] |  |  |  |  |  | Ki [2]: 8 nM
N=C(N)NCCC[C@H](NC(=O)[C@@H]1CCCN1C(=O)[C@H](N)Cc1ccc(O)cc1)C(=O)CCl [H-D-Tyr-Pro-Arg-chloromethylketone trifluororoacetate salt] (H-[dY]-Pro-Arg-CH2Cl) |  |  |  |  |  | IC50 when tested for enteropeptidase only, compared with the ones reported in FIG. 6 [3]: higher
CC(C)CN(C[C@@H](O)[C@H](Cc1ccccc1)NC(=O)O[C@H]1CCOC1)S(=O)(=O)c1ccc(N)cc1 [amprenavir] | significantly reduced | higher | significantly reduced | significantly reduced | significantly reduced | 
COC(=O)N[C@H](C(=O)N[C@@H](Cc1ccccc1)[C@@H](O)CN(Cc1ccc(-c2ccccn2)cc1)NC(=O)[C@@H](NC(=O)OC)C(C)(C)C)C(C)(C)C [atazanavir] | significantly reduced | higher | significantly reduced | significantly reduced | significantly reduced | 
CC(C)CN(C[C@@H](OP(=O)(O)O)[C@H](Cc1ccccc1)NC(=O)O[C@H]1CCOC1)S(=O)(=O)c1ccc(N)cc1 [fosamprenavir] | significantly reduced | higher | significantly reduced | significantly reduced | significantly reduced | 
CC(C)(C)NC(=O)[C@@H]1CN(Cc2cccnc2)CCN1C[C@@H](O)C[C@@H](Cc1ccccc1)C(=O)N[C@H]1c2ccccc2C[C@H]1O [indinavir] | significantly reduced | higher | significantly reduced | significantly reduced | significantly reduced | 
Cc1cccc(C)c1OCC(=O)N[C@@H](Cc1ccccc1)[C@@H](O)C[C@H](Cc1ccccc1)NC(=O)[C@H](C(C)C)N1CCCNC1=O [lopinavir] | significantly reduced | higher | significantly reduced | significantly reduced | significantly reduced | 
Cc1c(O)cccc1C(=O)N[C@@H](CSc1ccccc1)[C@H](O)CN1C[C@H]2CCCC[C@H]2C[C@H]1C(=O)NC(C)(C)C [nelfinavir] | significantly reduced | higher | significantly reduced | significantly reduced | significantly reduced | 
CC(C)c1nc(CN(C)C(=O)N[C@H](C(=O)N[C@@H](Cc2ccccc2)C[C@H](O)[C@H](Cc2ccccc2)NC(=O)OCc2cncs2)C(C)C)cs1 [ritonavir] |  |  |  |  |  | levels of blood glucose ([4]; 600 mg twice a day, 2 months): significantly reduced; levels of HDL ([5]; 600 mg twice a day, 2 months): higher; levels of LDL ([5]; 600 mg twice a day, 2 months): significantly reduced; levels of total cholesterol ([5]; 600 mg twice a day, 2 months): significantly reduced; levels of triglycerides ([5]; 600 mg twice a day, 2 months): significantly reduced
CC(C)(C)NC(=O)[C@@H]1C[C@@H]2CCCC[C@@H]2CN1C[C@@H](O)[C@H](Cc1ccccc1)NC(=O)[C@H](CC(N)=O)NC(=O)c1ccc2ccccc2n1 [saquinavir] | significantly reduced | higher | significantly reduced | significantly reduced | significantly reduced | 
AC-Leu-Val-Lys-Aldhehyde (peptide) |  |  |  |  |  | IC50 in the trypsinogen activation assay (percentage of inhibition, absorbance of pNA at 405 nM) [6]: 3 µM
BOC-Ala-Glu-Val-Asp-Aldehyde (Boc-AEVD-aldehyde; SMILES CC(C)[C@H](NC(=O)[C@H](CCC(=O)O)NC(=O)[C@H](C)NC(=O)OC(C)(C)C)C(=O)N[C@H](C=O)CC(=O)O) [negative control, Bachem N-1755] |  |  |  |  |  | inhibition ([1]; tested at 10 μm): no inhibition
Z-Asp-Glu-Val-Asp-chloromethylketone |  |  |  |  |  | inhibition ([1]; tested at 50 μm): no inhibition; IC50 when tested for enteropeptidase only, compared with the ones reported in FIG. 6 [3]: higher
H-[dY]-Pro-Arg-CH2Cl (also: trifluoroacetate salt) [H-D-Tyr-Pro-Arg-chloromethylketone trifluororoacetate salt] |  |  |  |  |  | IC50 in the trypsinogen activation assay (percentage of inhibition, absorbance of pNA at 405 nM) [6]: ~35 nM
{1,5‑dansyl}-Glu-Gly-Arg-CH2Cl (also: dihydrochloride salt) [1,5-Dansyl-Glu-Gly-Arg-chloromethylketone dihydrochloride] |  |  |  |  |  | IC50 in the trypsinogen activation assay (percentage of inhibition, absorbance of pNA at 405 nM) [6]: ~24.7 nM
